Results published in patent publication US4885305A, “Nasal compositions” (Yamanouchi Pharmaceutical Co., Ltd., priority 1984, dated 1989).
Read-outs that look alike come from different tables or passages of the source.

Experiment: Bioavailability trial of nicardipine in rhesus monkeys: nasal composition compared with oral route (gastric tube), plasma levels by gas chromatography
Assay type: in vivo
Conditions: rhesus monkey; for AUC(0-t) at 24 h: read-out: AUC 0-24 h (area under the curve); for Tmax: read-out: T max (time to obtain C max)
Description: This activity has been confirmed by standard bioavailability trials wherein nasal pharmaceutical compositions of the invention are compared with other conventional compositions and blood levels of drug are measured. In one trial, a nasal composition of the invention comprising 4 mg nicardipine hydrochloride per ml of distilled water has been administered nasally to rhesus monkeys (weight from 7 to 12 kg). A dose of 0.5 ml of this composition is sprayed each morning into each nostril. Blood samples are taken up 15 minutes, 30 minutes, 1 hour, 2 hours, 3 hours, 4 hours, 6 hours, 8 hours and 24 hours after administration and treated with lithium heparin. The treated blood samples are centrifuged and the concentration of nicardipine in the plasma is determined in conventional manner by converting the nicardipine into a corresponding pyridine derivative and determination by gas chromatographic techniques. The same animals are also treated in another similar trial with orally administered nicardipine at a dose of 20 mg by mean of a gastric tube.

[1] = oral route (gastric tube), 20 mg

## COC(=O)C1=C(C)NC(C)=C(C(=O)OCCN(C)Cc2ccccc2)C1c1cccc([N+](=O)[O-])c1 (stereo not shown) [nicardipine]
Nasal route, 4 mg
  AUC(0-t) at 24 h: 192 ± 36.3 ng·h/mL
  Tmax: 0.4 ± 0.1 h
[1]
  AUC(0-t) at 24 h: 457 ± 86.6 ng·h/mL
  Tmax: 2.1 ± 0.5 h
